Results published in BigSolDB 2.1.

O=C1/C(=C/c2ccc(O)cc2)CCC/C1=C\c1ccc(O)cc1
solubility (mole fraction)
Conditions	in 1,4-dioxane	in DMF	in DMSO	in THF	in acetic acid	in acetone	in ethyl acetate	in methanol	in n-butanol	in n-propanol
299.15 K	0.0074	0.0332	0.0112	0.023	0.0032	0.0049	0.0021	0.0034	0.0134	0.0013
303.15 K	0.0085	0.0388	0.0132	0.0256	0.0034	0.0061	0.0031	0.0041	0.0142	0.0023
308.15 K	0.0101	0.0458	0.0156	0.0281	0.0036	0.0073	0.004	0.0051	0.0152	0.0036
313.15 K	0.0115	0.0556	0.0251	0.0319	0.0039	0.0093	0.0053	0.0066	0.0164	0.0056
318.15 K	0.0135	0.0658	0.0371	0.0387	0.0044	0.0114	0.0069	0.0086	0.0178	0.0086
323.15 K	0.0153	0.0816	0.0528	0.0461	0.0052	0.0128	0.0102	0.0102	0.021	0.0123
328.15 K	0.0172	0.106	0.0742	0.0527	0.0063	0.0147	0.0136	0.0129	0.0235	0.0169
